Measured values as given in patent US9981908B2, “Amino acid derivatives” (priority 2013, dated 2018).
Where two headings read alike, the source gives them in different places.

Target: T1, pylRS/tRNA pair (Methanosarcina mazei, UniProt Q8PWY1, Y384F)
T1 construct: expressed in transfected cells; host or cells: HEK293 cells stably expressing pylRS
Type: cell-based
Conditions: HEK293 cells stably expressing pylRS, nnAAs at 2 mM for 2-3 days; for incorporation in the GFP reporter gene (green cells) / MFI: tRNApyl and GFPY40 reporter; for Positive GFP Assay: transfected with tRNApyl and GFPY40 reporter, visual inspection under the microscope; for MFI: GFP fluorescence by flow cytometry, geometric mean of the fluorescent cells
Text: An in vitro cell based assay was developed to assess the compatibility of the pylRS/tRNA pair and the pyrrolysine analogs of the present invention (nnAAs) by and the efficiency of nnAAs integration into a target protein. For this, HEK293 cells stably expressing pylRS (SEQ ID NO 4) were transiently transfected with plasmids for the expression of tRNApyl (SEQ ID NO 7) and a reporter construct encoding GFPY40 (containing amber codon in place of tyrosine at amino acid residue number 40 (where 1 is the initiator methionine)) (SEQ ID NOs 10 and 11) using standard transfection protocols. Transfected cells were incubated with nnAAs at 2 mM for 2-3 days GFP production was analyzed qualitatively by visual inspection under the microscope. The GFP fluorescence was quantified by flow cytometry using an Accuri flow cytometer and the geometric mean of the fluorescent cells determined.
This cell based assay was used to determine whether the different nnAAs were suitable substrates for the pylRS and allowed its translation into a target protein. Cells expressing the PylRS/tRNApyl pair and containing a vector encoding the GFPY40 reporter gene were incubated in the presence of the nnAAs. nnAAs that are readily utilized by the PylRS/tRNApyl pair support the translation of the nnAA into the amber site of GFP and allow read-through of the gene producing full length GFP (fluorescent protein). The fluorescence intensity of the cells depends on the efficiency of nnAA incorporation. Thus, nnAAs that are poorly utilized produce weakly fluorescent or non-fluorescing cells. […] Furthermore, the relative expression levels in each sample was compared to those generated by substrates known to be efficiently utilized by pylRS.

T1 sequence (Q8PWY1 whole entry Y384F): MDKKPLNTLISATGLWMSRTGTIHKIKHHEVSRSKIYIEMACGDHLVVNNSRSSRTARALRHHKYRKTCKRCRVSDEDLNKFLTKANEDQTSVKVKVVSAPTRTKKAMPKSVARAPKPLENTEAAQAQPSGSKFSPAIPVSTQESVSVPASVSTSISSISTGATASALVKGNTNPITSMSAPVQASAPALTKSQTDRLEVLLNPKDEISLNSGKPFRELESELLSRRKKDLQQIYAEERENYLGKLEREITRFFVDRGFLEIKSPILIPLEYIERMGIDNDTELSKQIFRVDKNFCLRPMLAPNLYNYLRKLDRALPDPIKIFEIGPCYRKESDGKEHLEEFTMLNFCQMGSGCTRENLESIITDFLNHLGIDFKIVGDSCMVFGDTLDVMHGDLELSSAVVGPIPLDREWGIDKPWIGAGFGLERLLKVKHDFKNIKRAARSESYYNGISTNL

Compound | incorporation in the GFP reporter gene (green cells) | Positive GFP Assay | also measured
[N-]=[N+]=NCCOC(=O)NCCSCC(N)C(=O)O (stereo in doubt) [Formula III.1, (2S)-2-amino-3-[(2-{[(2-azidoethoxy)carbonyl]amino}ethyl)sulfanyl]propanoic acid] | incorporated in the GFP reporter gene and yield green cells | Yes | 
C=CCNC(=O)NCCCC[C@H](N)C(=O)O [Formula IA.5, (2S)-2-amino-6-{[(prop-2-en-1-yl)carbamoyl]amino}hexanoic acid] | incorporated in the GFP reporter gene and yield green cells |  | 
[N-]=[N+]=NCCNC(=O)CCCSCC(N)C(=O)O (stereo in doubt) [Formula III.13, (2S)-2-amino-3-({3-[(2-azidoethyl)carbamoyl]propyl}sulfanyl)propanoic acid] | incorporated in the GFP reporter gene and yield green cells | Yes | 
C#CCOC(=O)NCCSCC(N)C(=O)O (stereo in doubt) [Formula III.2, (2S)-2-amino-3-[(2-{[(prop-2-yn-1-yloxy)carbonyl]amino}ethyl)sulfanyl]propanoic acid] | incorporated in the GFP reporter gene and yield green cells | Yes | 
C=CCOC(=O)NCCCC[C@H](N)C(=O)O [Formula IA.3, (2S)-2-amino-6-{[(prop-2-en-1-yloxy)carbonyl]amino}hexanoic acid] |  | Yes | MFI: 2,250,000; MFI (listed as 1A.3): 2250000
C=CCOC(=O)NC(CCN=[N+]=[N-])C(=O)NC[C@H](N)C(=O)O (stereo partly drawn) [Formula VIII.1, (2S)-2-amino-3-(4-azido-2-{[(prop-2-en-1-yloxy)carbonyl]amino}butanamido)propanoic acid] |  | Yes | 
C=CCNC(=O)CCCSCC(N)C(=O)O (stereo in doubt) [Formula III.12, (2S)-2-amino-3-({3-[(prop-2-en-1-yl)carbamoyl]propyl}sulfanyl)propanoic acid] | incorporated in the GFP reporter gene and yield green cells | Yes | 
C#CCOC(=O)NCC(=O)NC[C@H](N)C(=O)O [Formula V.2, (2S)-2-amino-3-(2-{[(prop-2-yn-1-yloxy)carbonyl]amino}acetamido)propanoic acid] | incorporated in the GFP reporter gene and yield green cells |  | 
CCCC(N=[N+]=[N-])C(=O)NCCCC[C@H](N)C(=O)O (stereo partly drawn) [Formula VII.1, (2S)-2-amino-6-(2-azidopentanamido)hexanoic acid] | incorporated in the GFP reporter gene and yield green cells | Yes | 
[N-]=[N+]=NCCNC(=O)NCCCC[C@H](N)C(=O)O [Formula IA.4, (2S)-2-amino-6-{[(2-azidoethyl)carbamoyl]amino}hexanoic acid] | incorporated in the GFP reporter gene and yield green cells | Yes | MFI: 254250
C=CCOC(=O)NCCSCC(N)C(=O)O (stereo in doubt) [Formula III.3, (2S)-2-amino-3-[(2-{[(prop-2-en-1-yloxy)carbonyl]amino}ethyl)sulfanyl]propanoic acid] | incorporated in the GFP reporter gene and yield green cells | Yes | 
[N-]=[N+]=NCCOC(=O)NCC(=O)NC[C@H](N)C(=O)O [Formula V.1, (2S)-2-amino-3-(2-{[(2-azidoethoxy)carbonyl]amino}acetamido)propanoic acid] | incorporated in the GFP reporter gene and yield green cells | Yes | 
[N-]=[N+]=NCCOC(=O)NCCCC[C@H](N)C(=O)O [Formula IA.1, (2S)-2-amino-6-{[(2-azidoethoxy)carbonyl]amino}hexanoic acid] |  | Yes | MFI: 931,289; MFI (listed as 1A.1): 931289
C=CCOC(=O)NCC(=O)NC[C@H](N)C(=O)O [Formula V.3, (2S)-2-amino-3-(2-{[(prop-2-en-1-yloxy)carbonyl]amino}acetamido)propanoic acid] | incorporated in the GFP reporter gene and yield green cells | Yes | 
C#CCOC(=O)NCCCC[C@H](N)C(=O)O [Formula IA.2, (2S)-2-amino-6-{[(prop-2-yn-1-yloxy)carbonyl]amino}hexanoic acid] |  | Yes | MFI: 1,676,250; MFI (listed as 1A.2): 1676250
